In ChEMBL document CHEMBL1134810, “G-quadruplex DNA binding by a series of carbocyanine dyes” (Bioorg Med Chem Lett, 2001):

Experiments:
[1] = molecular target: DNA polymerase I, thermostable (Thermus aquaticus) (UniProt P19821); test: Taq polymerase inhibition at […] concentration; settings: 20 uM
[2] = molecular target: Telomerase reverse transcriptase (Homo sapiens) (UniProt O14746); test: Inhibition of human telomerase activity in S100 HeLa cell extract at […] carbocyanine concentration.; format: cell-free
[3] = molecular target: DNA polymerase I, thermostable (Thermus aquaticus) (UniProt P19821); test: G4'-DNA binding-dependent Taq polymerase pausing is the ratio of pause/full bands at 20 uM carbocyanine concentration relative to control; expressed as Normalized ratio of G4'-DNA stop product

Sequence of DNA polymerase I, thermostable (Thermus aquaticus) (P19821 whole entry): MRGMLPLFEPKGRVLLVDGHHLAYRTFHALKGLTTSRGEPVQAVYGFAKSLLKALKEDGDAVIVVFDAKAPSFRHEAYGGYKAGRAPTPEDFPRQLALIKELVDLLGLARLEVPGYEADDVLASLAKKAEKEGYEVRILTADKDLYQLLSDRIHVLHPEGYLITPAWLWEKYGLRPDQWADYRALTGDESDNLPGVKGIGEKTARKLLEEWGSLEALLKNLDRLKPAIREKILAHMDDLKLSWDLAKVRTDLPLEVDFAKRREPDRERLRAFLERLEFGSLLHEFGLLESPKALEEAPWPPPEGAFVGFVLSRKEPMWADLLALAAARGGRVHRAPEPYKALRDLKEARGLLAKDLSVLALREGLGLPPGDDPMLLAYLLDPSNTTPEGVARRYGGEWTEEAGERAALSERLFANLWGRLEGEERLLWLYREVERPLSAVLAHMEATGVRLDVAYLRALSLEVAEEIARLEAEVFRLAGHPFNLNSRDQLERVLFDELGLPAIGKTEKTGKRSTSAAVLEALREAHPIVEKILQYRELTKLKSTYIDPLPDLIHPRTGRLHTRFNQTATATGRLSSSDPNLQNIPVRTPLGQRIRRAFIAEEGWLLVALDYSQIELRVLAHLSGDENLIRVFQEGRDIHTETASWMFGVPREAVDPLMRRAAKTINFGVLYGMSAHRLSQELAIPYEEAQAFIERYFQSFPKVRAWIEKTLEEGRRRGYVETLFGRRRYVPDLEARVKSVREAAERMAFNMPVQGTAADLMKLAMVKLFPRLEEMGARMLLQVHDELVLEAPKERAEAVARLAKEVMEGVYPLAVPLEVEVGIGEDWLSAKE
Sequence of Telomerase reverse transcriptase (Homo sapiens) (O14746 whole entry): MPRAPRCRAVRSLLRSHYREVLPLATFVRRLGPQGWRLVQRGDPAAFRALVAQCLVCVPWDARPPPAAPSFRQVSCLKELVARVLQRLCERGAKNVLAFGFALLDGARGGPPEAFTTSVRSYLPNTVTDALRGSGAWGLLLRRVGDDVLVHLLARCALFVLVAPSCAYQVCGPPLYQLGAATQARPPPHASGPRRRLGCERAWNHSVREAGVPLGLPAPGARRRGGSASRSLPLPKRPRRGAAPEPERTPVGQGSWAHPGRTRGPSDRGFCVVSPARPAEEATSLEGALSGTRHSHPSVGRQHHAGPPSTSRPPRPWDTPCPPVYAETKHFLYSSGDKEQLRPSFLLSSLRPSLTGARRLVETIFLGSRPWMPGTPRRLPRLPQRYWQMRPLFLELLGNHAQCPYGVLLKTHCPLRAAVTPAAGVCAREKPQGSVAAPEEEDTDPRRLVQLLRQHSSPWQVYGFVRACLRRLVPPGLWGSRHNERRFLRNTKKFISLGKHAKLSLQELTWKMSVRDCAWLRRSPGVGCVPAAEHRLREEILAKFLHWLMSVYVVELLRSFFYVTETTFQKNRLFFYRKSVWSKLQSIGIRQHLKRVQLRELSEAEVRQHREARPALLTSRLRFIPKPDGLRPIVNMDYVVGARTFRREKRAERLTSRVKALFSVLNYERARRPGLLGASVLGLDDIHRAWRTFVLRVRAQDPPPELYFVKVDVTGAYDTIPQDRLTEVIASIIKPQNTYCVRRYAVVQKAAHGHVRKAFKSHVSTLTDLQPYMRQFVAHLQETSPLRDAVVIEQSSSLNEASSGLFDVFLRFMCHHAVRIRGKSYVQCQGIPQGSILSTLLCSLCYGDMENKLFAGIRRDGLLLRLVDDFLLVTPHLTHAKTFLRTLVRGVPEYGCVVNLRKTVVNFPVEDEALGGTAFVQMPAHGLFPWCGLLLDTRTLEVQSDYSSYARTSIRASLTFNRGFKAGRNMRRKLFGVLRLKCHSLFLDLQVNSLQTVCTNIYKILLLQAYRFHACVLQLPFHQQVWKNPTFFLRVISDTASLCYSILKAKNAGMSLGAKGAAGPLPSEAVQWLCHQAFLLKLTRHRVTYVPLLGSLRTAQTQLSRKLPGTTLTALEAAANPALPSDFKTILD

In the case of `CCN1/C(=C/C=C/c2sc3ccccc3[n+]2CC)Sc2ccccc21`, the inhibition [1] is reported as 14%, the inhibition [2] is reported as 35% and the Activity [3] is reported as 4.4.
With `CCN1C(=CC=CC=Cc2sc3ccccc3[n+]2CC)Sc2ccccc21` the inhibition [1] was 91% and the inhibition [2] was < 10%.
With `CCN1/C(=C/C=C/C=C/c2oc3ccccc3[n+]2CC)Oc2ccccc21` the inhibition [1] was 27%, the inhibition [2] was < 10% and the Activity [3] was 1.6.
`CCN1/C(=C/C=C/C=C/C=C/c2sc3ccccc3[n+]2CC)Sc2ccccc21` was tested, and the inhibition [1] was 1.1%, the inhibition [2] was < 10% and the Activity [3] was 1.1.
In the case of `CCN1/C(=C/C=C/c2oc3ccccc3[n+]2CC)Oc2ccccc21`, the inhibition [1] is reported as 15%, the inhibition [2] is reported as < 10% and the Activity [3] is reported as 0.9.
